{"source": "ChEMBL document CHEMBL1147864", "about": "“Synthesis of new sugar derivatives from Stachys sieboldi Miq and antibacterial evaluation against Mycobacterium tuberculosis, Mycobacterium avium, and Staphylococcus aureus” (2007)", "format_in_all_cases": "functional", "details_in_all_cases": "336 h", "key": {"[1]": {"tested_on": "Mycobacterium tuberculosis", "test": "Antimycobacterial activity against isoniazide resistant Mycobacterium tuberculosis A-2-1 after 2 weeks by broth dilution method"}, "[2]": {"tested_on": "Mycobacterium tuberculosis", "test": "Antimycobacterial activity against isoniazide-rifampicin resistant Mycobacterium tuberculosis A-2-3 after 2 weeks by broth dilution method"}, "[3]": {"tested_on": "Mycobacterium tuberculosis", "test": "Antimycobacterial activity against rifampicin resistant Mycobacterium tuberculosis A-2-4 after 2 weeks by broth dilution method"}, "[4]": {"tested_on": "Mycobacterium tuberculosis", "test": "Antimycobacterial activity against isoniazide-rifampicin-streptomycin-ethambutol-resistant Mycobacterium tuberculosis A-2-6 after 2 weeks by broth dilution method"}, "[5]": {"tested_on": "Mycobacterium tuberculosis", "test": "Antimycobacterial activity against streptomycin resistant Mycobacterium tuberculosis A-3-47 after 2 weeks by broth dilution method"}, "[6]": {"tested_on": "Mycobacterium tuberculosis", "test": "Antimycobacterial activity against streptomycin resistant Mycobacterium tuberculosis A-4-8 after 2 weeks by broth dilution method"}, "[7]": {"tested_on": "Mycobacterium tuberculosis", "test": "Antimycobacterial activity against isoniazide-streptomycin resistant Mycobacterium tuberculosis A-4-25 after 2 weeks by broth dilution method"}, "[8]": {"tested_on": "Mycobacterium tuberculosis", "test": "Antimycobacterial activity against isoniazide-rifampicin-ethambutol-resistant Mycobacterium tuberculosis A-4-30 after 2 weeks by broth dilution method"}, "[9]": {"tested_on": "Mycobacterium tuberculosis", "test": "Antimycobacterial activity against isoniazide-rifampicin-streptomycin-ethambutol-resistant Mycobacterium tuberculosis C-1-29 after 2 weeks by broth dilution method"}, "[10]": {"tested_on": "Mycobacterium tuberculosis", "test": "Antimycobacterial activity against isoniazide-rifampicin-streptomycin-ethambutol-resistant Mycobacterium tuberculosis E-1-40 after 2 weeks by broth dilution method"}, "[11]": {"tested_on": "Mycobacterium tuberculosis", "test": "Antimycobacterial activity against isoniazide-rifampicin-ethambutol-resistant Mycobacterium tuberculosis J-1-19 after 2 weeks by broth dilution method"}, "[12]": {"tested_on": "Mycobacterium tuberculosis", "test": "Antimycobacterial activity against isoniazide resistant Mycobacterium tuberculosis K-3-6 after 2 weeks by broth dilution method"}, "[13]": {"tested_on": "Mycobacterium tuberculosis", "test": "Antimycobacterial activity against isoniazide-rifampicin-streptomycin-ethambutol-resistant Mycobacterium tuberculosis M-1-32 after 2 weeks by broth dilution method"}, "[14]": {"tested_on": "Mycobacterium tuberculosis", "test": "Antimycobacterial activity against isoniazide-rifampicin-ethambutol-resistant Mycobacterium tuberculosis N-4-11 after 2 weeks by broth dilution method"}, "[15]": {"tested_on": "Mycobacterium tuberculosis", "test": "Antimycobacterial activity against isoniazide-rifampicin-streptomycin-ethambutol-resistant Mycobacterium tuberculosis N-5-2 after 2 weeks by broth dilution method"}, "[16]": {"tested_on": "Mycobacterium tuberculosis", "test": "Antimycobacterial activity against isoniazide-rifampicin-streptomycin-ethambutol-resistant Mycobacterium tuberculosis P-1-50 after 2 weeks by broth dilution method"}, "[17]": {"tested_on": "Mycobacterium tuberculosis", "test": "Antimycobacterial activity against isoniazide-rifampicin-streptomycin-ethambutol-resistant Mycobacterium tuberculosis P-4-11after 2 weeks by broth dilution method"}, "[18]": {"tested_on": "Mycobacterium tuberculosis", "test": "Antimycobacterial activity against isoniazide-rifampicin-streptomycin-ethambutol-resistant Mycobacterium tuberculosis Q-4-1 after 2 weeks by broth dilution method"}, "[19]": {"tested_on": "Mycobacterium tuberculosis", "test": "Antimycobacterial activity against isoniazide-rifampicin-streptomycin-ethambutol-resistant Mycobacterium tuberculosis R-1-38 after 2 weeks by broth dilution method"}, "[20]": {"tested_on": "Mycobacterium tuberculosis", "test": "Antimycobacterial activity against isoniazide-rifampicin-streptomycin-ethambutol-resistant Mycobacterium tuberculosis S-1-14 after 2 weeks by broth dilution method"}, "[21]": {"tested_on": "Mycobacterium tuberculosis", "test": "Antimycobacterial activity against isoniazide-rifampicin-streptomycin-ethambutol-resistant Mycobacterium tuberculosis U-2-15 after 2 weeks by broth dilution method"}, "[22]": {"tested_on": "Mycobacterium tuberculosis", "test": "Antimycobacterial activity against isoniazide-rifampicin-streptomycin-ethambutol-resistant Mycobacterium tuberculosis U-4-6 after 2 weeks by broth dilution method"}, "[23]": {"tested_on": "Mycobacterium tuberculosis", "test": "Antimycobacterial activity against isoniazide-rifampicin-streptomycin-ethambutol-resistant Mycobacterium tuberculosis V-1-16 after 2 weeks by broth dilution method"}, "[24]": {"tested_on": "Mycobacterium tuberculosis", "test": "Antimycobacterial activity against isoniazide-rifampicin-streptomycin-ethambutol-resistant Mycobacterium tuberculosis Z-1-2 after 2 weeks by broth dilution method"}, "[25]": {"tested_on": "Mycobacterium tuberculosis", "test": "Antimycobacterial activity against isoniazide-rifampicin-streptomycin-ethambutol-resistant Mycobacterium tuberculosis Z-1-4 after 2 weeks by broth dilution method"}}}
{"smiles": "C=CCO[C@@H]1O[C@H](CO[C@H]2O[C@H](CO[C@H]3O[C@H](COC(C)=O)[C@H](OC(C)=O)[C@H](OC(C)=O)[C@H]3OC(C)=O)[C@H](OC(C)=O)[C@H](OC(C)=O)[C@H]2OC(C)=O)[C@@H](OC(C)=O)[C@H](OC(C)=O)[C@H]1OC(C)=O", "values": [{"measurement": "MIC", "setting": "[1]", "result": 3.13, "unit": "µg/mL"}, {"measurement": "MIC", "setting": "[2]", "result": 3.13, "unit": "µg/mL"}, {"measurement": "MIC", "setting": "[3]", "result": 12.5, "unit": "µg/mL"}, {"measurement": "MIC", "setting": "[4]", "result": 6.25, "unit": "µg/mL"}, {"measurement": "MIC", "setting": "[5]", "result": 3.13, "unit": "µg/mL"}, {"measurement": "MIC", "setting": "[6]", "result": 6.25, "unit": "µg/mL"}, {"measurement": "MIC", "setting": "[7]", "result": 12.5, "unit": "µg/mL"}, {"measurement": "MIC", "setting": "[8]", "result": 6.25, "unit": "µg/mL"}, {"measurement": "MIC", "setting": "[9]", "result": 12.5, "unit": "µg/mL"}, {"measurement": "MIC", "setting": "[10]", "result": 6.25, "unit": "µg/mL"}, {"measurement": "MIC", "setting": "[11]", "result": 3.13, "unit": "µg/mL"}, {"measurement": "MIC", "setting": "[12]", "result": 3.13, "unit": "µg/mL"}, {"measurement": "MIC", "setting": "[13]", "result": 3.13, "unit": "µg/mL"}, {"measurement": "MIC", "setting": "[14]", "result": 3.13, "unit": "µg/mL"}, {"measurement": "MIC", "setting": "[15]", "result": 3.13, "unit": "µg/mL"}, {"measurement": "MIC", "setting": "[16]", "result": 3.13, "unit": "µg/mL"}, {"measurement": "MIC", "setting": "[17]", "result": 3.13, "unit": "µg/mL"}, {"measurement": "MIC", "setting": "[18]", "result": 6.25, "unit": "µg/mL"}, {"measurement": "MIC", "setting": "[19]", "result": 6.25, "unit": "µg/mL"}, {"measurement": "MIC", "setting": "[20]", "result": 6.25, "unit": "µg/mL"}, {"measurement": "MIC", "setting": "[21]", "result": 6.25, "unit": "µg/mL"}, {"measurement": "MIC", "setting": "[22]", "result": 1.56, "unit": "µg/mL"}, {"measurement": "MIC", "setting": "[23]", "result": 6.25, "unit": "µg/mL"}, {"measurement": "MIC", "setting": "[24]", "result": 3.13, "unit": "µg/mL"}, {"measurement": "MIC", "setting": "[25]", "result": 6.25, "unit": "µg/mL"}]}
